Laboratory results taken from US11339165B2, “Pyrazolopyrimidines having activity against the respiratory syncytial virus (RSV)” (priority 2017, dated 2022).

Columns and labels:
[1] = in vitro; settings: human, TOX HELA CC50 (μM)
[2] = tested on: rgRSV224 virus; assay: Antiviral activity: rgRSV224 (GFP) replication in HeLa cells; format: cell-based, respiratory syncytial virus (RSV); settings: human respiratory syncytial virus, HeLa, 72 h, read-out: RSV HELA EC50 (μM), rgRSV224 virus (MOI=1), HeLa cells, GFP expression three days post-virus exposure

Compound	CC50 at 3 days [1]	EC50 [2]
C[C@@H]1c2ccsc2CCN1C(=O)c1cc(C2CC2)n2nc(-c3ccc(N4CC[C@H](C(C)(C)C(N)=O)C4)cc3F)cc2n1 (single isomer, unassigned) [Compound 29, 2-[(3*R)-1-(4-{7-Cyclopropyl-5-[(4*R)-4-methyl-4,5,6,7-tetrahydro-thieno[3,2-c]pyridine-5-carbonyl]pyrazolo[1,5-a]pyrimidin-2-yl}-3-fluorophenyl)pyrrolidin-3-yl]-2-methyl-propanamide]	43.7 µM	0.045 µM
C[C@@H]1c2ccsc2CCN1C(=O)c1cc(C2CC2)n2nc(-c3ccc(N4CC[C@H](C(=O)NS(C)(=O)=O)C4)cc3F)cc2n1 (single isomer, unassigned) [Compound 41, (3S)-1-(4-{7-Cyclopropyl-5-[(4*R)-4-methyl-4,5,6,7-tetrahydro-thieno[3,2-c]pyridine-5-carbonyl]pyrazolo[1,5-a]pyrimidin-2-yl}-3-fluorophenyl)-N-methanesulfonylpyrrolidine-3-carboxamide]	51.1 µM	0.036 µM
C[C@@H]1c2ccsc2CCN1C(=O)c1cc(C2CC2)n2nc(-c3ccc(N4CC[C@@](C)(C(N)=O)C4)cc3F)cc2n1 (single isomer, unassigned) [Compound 44, (3*R)-1-(4-{7-Cyclopropyl-5-[(4*R)-4-methyl-4,5,6,7-tetrahydro-thieno[3,2-c]pyridine-5-carbonyl]pyrazolo[1,5-a]pyrimidin-2-yl}-3-fluorophenyl)-3-methylpyrrolidine-3-carboxamide]	45.2 µM	0.019 µM
C[C@@H]1c2ccsc2CCN1C(=O)c1cc(C2CC2)n2nc(-c3ccc(N4CC[C@](C)(C(N)=O)C4)cc3F)cc2n1 (single isomer, unassigned) [Compound 45, (3*S)-1-(4-{7-Cyclopropyl-5-[(4*R)-4-methyl-4,5,6,7-tetrahydro-thieno[3,2-c]pyridine-5-carbonyl]pyrazolo[1,5-a]pyrimidin-2-yl}-3-fluorophenyl)-3-methylpyrrolidine-3-carboxamide]	31.4 µM	0.02 µM
C[C@@H]1c2ccccc2CCN1C(=O)c1cc(C2CC2)n2nc(-c3ccc(N4CCC(O)(CO)C4)cc3F)cc2n1 (single isomer, unassigned) [Compound 103]	35.8 µM	0.019 µM
CO[C@H]1CN(c2ccc(-c3cc4nc(C(=O)N5CCc6ccccc6[C@H]5C)cc(C5CC5)n4n3)c(F)c2)C[C@@H]1O (stereo in doubt) [Compound 96, (7-cyclopropyl-2-(2-fluoro-4-((trans)-3-hydroxy-4-methoxypyrrolidin-1-yl)phenyl)pyrazolo[1,5-a]pyrimidin-5-yl)((R)-1-methyl-3,4-dihydroisoquinolin-2(1H)-yl)methanone]	22.5 µM	0.05 µM
C[C@@H]1c2ccccc2CCN1C(=O)c1cc(C2CC2)n2nc(-c3ccc(N4C[C@H](C)[C@@H](O)C4)cc3F)cc2n1 (stereo in doubt) [Compound 99, (7-cyclopropyl-2-(2-fluoro-4-((trans)-3-hydroxy-4-methylpyrrolidin-1-yl)phenyl)pyrazolo[1,5-a]pyrimidin-5-yl)((R)-1-methyl-3,4-dihydroisoquinolin-2(1H)-yl)methanone]	> 100 µM	0.092 µM
C[C@@H]1c2ccccc2CCN1C(=O)c1cc(C2CC2)n2nc(-c3ccc(N4CCC(C#N)C4)cc3F)cc2n1 (stereo partly drawn) [Compound 1, 1-(4-{7-Cyclopropyl-5-[(1R)-1-methyl-1,2,3,4-tetrahydroisoquinoline-2-carbonyl]-pyrazolo[1,5-a]pyrimidin-2-yl}-3-fluorophenyl)pyrrolidine-3-carbonitrile]	> 100 µM	0.085 µM
C[C@@H]1c2ccccc2CCN1C(=O)c1cc(C2CC2)n2nc(-c3ccc(N4CC[C@@H](c5nnn[nH]5)C4)cc3F)cc2n1 [Compound 2, (1R)-2-(7-Cyclopropyl-2-{2-fluoro-4-[(3R)-3-(1H-1,2,3,4-tetrazol-5-yl)pyrrolidin-1-yl]phenyl}pyrazolo[1,5-a]pyrimidine-5-carbonyl)-1-methyl-1,2,3,4-tetrahydroisoquinoline]	38.7 µM	0.056 µM
C[C@@H]1c2ccccc2CCN1C(=O)c1cc(C2CC2)n2nc(-c3ccc(N4CC[C@H](c5nnn[nH]5)C4)cc3F)cc2n1 [Compound 3, (1R)-2-(7-Cyclopropyl-2-{2-fluoro-4-[(3S)-3-(1H-1,2,3,4-tetrazol-5-yl)pyrrolidin-1-yl]phenyl}pyrazolo[1,5-a]pyrimidine-5-carbonyl)-1-methyl-1,2,3,4-tetrahydroisoquinoline]	43 µM	0.063 µM
C[C@@H]1c2ccccc2CCN1C(=O)c1cc(C2CC2)n2nc(-c3ccc(N4CC[C@H](c5noc(=O)[nH]5)C4)cc3F)cc2n1 [Compound 4, 3-[(3S)-1-(4-{7-Cyclopropyl-5-[(1R)-1-methyl-1,2,3,4-tetrahydroisoquinoline-2-carbonyl]pyrazolo[1,5-a]pyrimidin-2-yl}-3-fluorophenyl)pyrrolidin-3-yl]-4,5-dihydro-1,2,4-oxadiazol-5-one]	23 µM	0.049 µM
C[C@@H]1c2ccccc2CCN1C(=O)c1cc(C2CC2)n2nc(-c3ccc(N4CCC5(C4)CS(=O)(=O)C5)cc3F)cc2n1 [Compound 6]	> 100 µM	0.098 µM
CC(=O)N[C@H]1CCN(c2ccc(-c3cc4nc(C(=O)N5CCc6ccccc6[C@H]5C)cc(C5CC5)n4n3)c(F)c2)C1 [Compound 8, N-[(3S)-1-(4-{7-Cyclopropyl-5-[(1R)-1-methyl-1,2,3,4-tetrahydroisoquinoline-2-carbonyl]pyrazolo[1,5-a]pyrimidin-2-yl}-3-fluorophenyl)pyrrolidin-3-yl]acetamide]	51.5 µM	0.041 µM
COC(=O)N[C@@H]1CCN(c2ccc(-c3cc4nc(C(=O)N5CCc6ccccc6[C@H]5C)cc(C5CC5)n4n3)c(F)c2)C1 [Compound 9, Methyl N-[(3R)-1-[4-{7-cyclopropyl-5-[(1R)-1-methyl-1,2,3,4-tetrahydroisoquinoline-2-carbonyl]pyrazolo[1,5-a]pyrimidin-2-yl}-3-fluorophenyl)pyrrolidin-3-yl]carbamate]	> 100 µM	0.108 µM
COC(=O)N[C@H]1CCN(c2ccc(-c3cc4nc(C(=O)N5CCc6ccccc6[C@H]5C)cc(C5CC5)n4n3)c(F)c2)C1 [Compound 10, Methyl N-[(3S)-1-[4-{7-cyclopropyl-5-[(1R)-1-methyl-1,2,3,4-tetrahydroisoquinoline-2-carbonyl]pyrazolo[1,5-a]pyrimidin-2-yl}-3-fluorophenyl)pyrrolidin-3-yl]carbamate]	> 100 µM	0.07 µM
C[C@@H]1c2ccccc2CCN1C(=O)c1cc(C2CC2)n2nc(-c3ccc(N4CC[C@H](NS(C)(=O)=O)C4)cc3F)cc2n1 [Compound 12, N-[(3S)-1-(4-{7-Cyclopropyl-5-[(1R)-1-methyl-1,2,3,4-tetrahydroisoquinoline-2-carbonyl]pyrazolo[1,5-a]pyrimidin-2-yl}-3-fluorophenyl)pyrrolidin-3-yl]methane-sulfonamide]	> 100 µM	0.041 µM
C[C@@H]1c2ccccc2CCN1C(=O)c1cc(C2CC2)n2nc(-c3ccc(N4CC[C@@H](O)C4)cc3F)cc2n1 [Compound 13, (3R)-1-(4-{7-Cyclopropyl-5-[(1R)-1-methyl-1,2,3,4-tetrahydroisoquinoline-2-carbonyl]pyrazolo[1,5-a]pyrimidin-2-yl}-3-fluorophenyl)pyrrolidin-3-ol]	80.5 µM	0.058 µM
C[C@@H]1c2ccccc2CCN1C(=O)c1cc(C2CC2)n2nc(-c3ccc(N4CC[C@H](O)C4)cc3F)cc2n1 [Compound 14, (3S)-1-(4-{7-Cyclopropyl-5-[(1R)-1-methyl-1,2,3,4-tetrahydroisoquinoline-2-carbonyl]-pyrazolo[1,5-a]pyrimidin-2-yl}-3-fluorophenyl)pyrrolidin-3-ol]	81.2 µM	0.039 µM
CNC(=O)O[C@@H]1CCN(c2ccc(-c3cc4nc(C(=O)N5CCc6ccccc6[C@H]5C)cc(C5CC5)n4n3)c(F)c2)C1 [Compound 15, (3R)-1-(4-{7-Cyclopropyl-5-[(1R)-1-methyl-1,2,3,4-tetrahydroisoquinoline-2-carbonyl]-pyrazolo[1,5-a]pyrimidin-2-yl}-3-fluorophenyl)pyrrolidin-3-yl N-methylcarbamate]	> 100 µM	0.1 µM
CNC(=O)O[C@H]1CCN(c2ccc(-c3cc4nc(C(=O)N5CCc6ccccc6[C@H]5C)cc(C5CC5)n4n3)c(F)c2)C1 [Compound 16, (3S)-1-(4-{7-Cyclopropyl-5-[(1R)-1-methyl-1,2,3,4-tetrahydroisoquinoline-2-carbonyl]-pyrazolo[1,5-a]pyrimidin-2-yl}-3-fluorophenyl)pyrrolidin-3-yl N-methylcarbamate]	> 100 µM	0.11 µM
C[C@@H]1c2ccccc2CCN1C(=O)c1cc(C2CC2)n2nc(-c3ccc(N4CC[C@H](S(C)(=O)=O)C4)cc3F)cc2n1 [Compound 18, (1R)-2-(7-Cyclopropyl-2-{2-fluoro-4-[(3S)-3-methanesulfonylpyrrolidin-1-yl]phenyl}-pyrazolo[1,5-a]pyrimidine-5-carbonyl)-1-methyl-1,2,3,4-tetrahydroisoquinoline]	> 100 µM	0.044 µM
CC(=O)NS(=O)(=O)C1CCN(c2ccc(-c3cc4nc(C(=O)N5CCc6ccccc6[C@H]5C)cc(C5CC5)n4n3)c(F)c2)C1 (stereo partly drawn) [Compound 20, N-{[1-(4-{7-Cyclopropyl-5-[(1R)-1-methyl-1,2,3,4-tetrahydroisoquinoline-2-carbonyl]-pyrazolo[1,5-a]pyrimidin-2-yl}-3-fluorophenyl)pyrrolidin-3-yl]sulfonyl}acetamide]	55.9 µM	0.052 µM
CNS(=O)(=O)C1CCN(c2ccc(-c3cc4nc(C(=O)N5CCc6ccccc6[C@H]5C)cc(C5CC5)n4n3)c(F)c2)C1 (stereo partly drawn) [Compound 21, 1-(4-{7-Cyclopropyl-5-[(1R)-1-methyl-1,2,3,4-tetrahydroisoquinoline-2-carbonyl]-pyrazolo[1,5-a]pyrimidin-2-yl}-3-fluorophenyl)-N-methylpyrrolidine-3-sulfonamide]	> 100 µM	0.045 µM
